In ChEMBL document CHEMBL4814027, “Synthesis and biological evaluation of naphthoquinone phenacylimidazolium derivatives” (Bioorg Med Chem Lett, 2021):
Activity calls are given as the source filed them. No cut-off for these calls is given here.

Key:
MCF7 [1] = assay: Cytotoxicity against human MCF7 cells by MTT assay; assay type: functional, cell-based
HeLa = assay: Cytotoxicity against human HeLa cells by MTT assay; assay type: functional, cell-based
A549 = assay: Cytotoxicity against human A549 cells by MTT assay
L929 = assay: Cytotoxicity against mouse L929 cells by MTT assay
[2] = Selectivity ratio of IC50 for mouse L929 cells to IC50 for human MCF7 cells; assay type: toxicity; conditions: L929 cells versus MCF7 cells, read-out: Ratio IC50
[3] = Selectivity ratio of IC50 for mouse L929 cells to IC50 for human HeLa cells; assay type: toxicity; conditions: L929 cells versus HeLa cells, read-out: Ratio IC50
[4] = Selectivity ratio of IC50 for mouse L929 cells to IC50 for human A549 cells; assay type: toxicity; conditions: L929 cells versus A549 cells, read-out: Ratio IC50
MCF7 [5] = assay: Induction of apoptosis in human MCF7 cells assessed as viable cells at 0.02 uM after 48 hrs by Annexin V/PI staining based flow cytometric analysis (reference value: 93.7 %); assay type: functional; conditions: read-out: Activity
MCF7 [6] = assay: Induction of apoptosis in human MCF7 cells assessed as early apoptotic cells at 0.02 uM after 48 hrs by Annexin V/PI staining based flow cytometric analysis (reference value: 5.05 %); assay type: functional
MCF7 [7] = assay: Induction of apoptosis in human MCF7 cells assessed as late apoptotic cells at 0.02 uM after 48 hrs by Annexin V/PI staining based flow cytometric analysis (reference value: 1.23 %); assay type: functional
MCF7 [8] = assay: Induction of apoptosis in human MCF7 cells assessed as necrotic cells at 0.02 uM after 48 hrs by Annexin V/PI staining based flow cytometric analysis (reference value: 0.017 %); assay type: functional
MCF7 [9] = assay: Induction of apoptosis in human MCF7 cells assessed as viable cells at 0.1 uM after 48 hrs by Annexin V/PI staining based flow cytometric analysis (reference value: 93.7 %); assay type: functional; conditions: read-out: Activity
MCF7 [10] = assay: Induction of apoptosis in human MCF7 cells assessed as early apoptotic cells at 0.1 uM after 48 hrs by Annexin V/PI staining based flow cytometric analysis (reference value: 5.05 %); assay type: functional
MCF7 [11] = assay: Induction of apoptosis in human MCF7 cells assessed as late apoptotic cells at 0.1 uM after 48 hrs by Annexin V/PI staining based flow cytometric analysis (reference value: 1.23 %); assay type: functional
MCF7 [12] = assay: Induction of apoptosis in human MCF7 cells assessed as necrotic cells at 0.1 uM after 48 hrs by Annexin V/PI staining based flow cytometric analysis (reference value: 0.017 %); assay type: functional
MCF7 [13] = assay: Induction of apoptosis in human MCF7 cells assessed as viable cells at 0.2 uM after 48 hrs by Annexin V/PI staining based flow cytometric analysis (reference value: 93.7 %); assay type: functional; conditions: read-out: Activity
MCF7 [14] = assay: Induction of apoptosis in human MCF7 cells assessed as early apoptotic cells at 0.2 uM after 48 hrs by Annexin V/PI staining based flow cytometric analysis (reference value: 5.05 %); assay type: functional
MCF7 [15] = assay: Induction of apoptosis in human MCF7 cells assessed as late apoptotic cells at 0.2 uM after 48 hrs by Annexin V/PI staining based flow cytometric analysis (reference value: 1.23 %); assay type: functional
MCF7 [16] = assay: Induction of apoptosis in human MCF7 cells assessed as necrotic cells at 0.2 uM after 48 hrs by Annexin V/PI staining based flow cytometric analysis (reference value: 0.017 %); assay type: functional
MCF7 [17] = assay: Induction of cell cycle arrest in human MCF7 cells assessed as accumulation at G0/G1 phase at 0.02 uM after 48 hrs by flow cytometric analysis (reference value: 66.6 %); assay type: functional
MCF7 [18] = assay: Induction of cell cycle arrest in human MCF7 cells assessed as accumulation at S phase at 0.02 uM after 48 hrs by flow cytometric analysis (reference value: 24.4 %); assay type: functional
MCF7 [19] = assay: Induction of cell cycle arrest in human MCF7 cells assessed as accumulation at G2/M phase at 0.02 uM after 48 hrs by flow cytometric analysis (reference value: 8.7 %); assay type: functional
MCF7 [20] = assay: Induction of cell cycle arrest in human MCF7 cells assessed as accumulation at G0/G1 phase at 0.1 uM after 48 hrs by flow cytometric analysis (reference value: 66.6 %); assay type: functional
MCF7 [21] = assay: Induction of cell cycle arrest in human MCF7 cells assessed as accumulation at S phase at 0.1 uM after 48 hrs by flow cytometric analysis (reference value: 24.4 %); assay type: functional
MCF7 [22] = assay: Induction of cell cycle arrest in human MCF7 cells assessed as accumulation at G2/M phase at 0.1 uM after 48 hrs by flow cytometric analysis (reference value: 8.7 %); assay type: functional
MCF7 [23] = assay: Induction of cell cycle arrest in human MCF7 cells assessed as accumulation at G0/G1 phase at 0.2 uM after 48 hrs by flow cytometric analysis (reference value: 66.6 %); assay type: functional
MCF7 [24] = assay: Induction of cell cycle arrest in human MCF7 cells assessed as accumulation at S phase at 0.2 uM after 48 hrs by flow cytometric analysis (reference value: 24.4 %); assay type: functional
MCF7 [25] = assay: Induction of cell cycle arrest in human MCF7 cells assessed as accumulation at G2/M phase at 0.2 uM after 48 hrs by flow cytometric analysis (reference value: 8.7 %); assay type: functional
MCF7 [26] = assay: Induction of apoptosis in human MCF7 cells assessed as increase in cleaved caspase 3 protein expression at 0.02 uM by Western blotting analysis; assay type: functional, cell-based
MCF7 [27] = assay: Induction of apoptosis in human MCF7 cells assessed as inhibition of survivin protein expression at 0.02 to 0.2 uM by Western blotting analysis; assay type: functional, cell-based; conditions: dose 0.02-0.2 µM

With `CC(C)Cn1c[n+](CC(=O)c2cccs2)c2c1C(=O)c1ccccc1C2=O.[Br-]` the IC50 (MCF7 [1]) was 50 nM, the IC50 (HeLa) was 600 nM and the IC50 (A549) was 210 nM. For the same compound, the IC50 (L929) was 12800 nM, the selectivity ratio [2] was 256 and the selectivity ratio [3] was 21.3. The selectivity ratio [4] was 61, the viability at 0.02 µM (MCF7 [5]) was 47.6% and the Activity (MCF7 [6]) was 46%. The Activity (MCF7 [7]) was 6.12%, the Activity (MCF7 [8]) was 0.33% and the viability at 0.1 µM (MCF7 [9]) was 26%. The Activity (MCF7 [10]) was 69.2%, the Activity (MCF7 [11]) was 4.44% and the Activity (MCF7 [12]) was 0.42%. For the same compound, the viability at 0.2 µM (MCF7 [13]) was 7.84%, the Activity (MCF7 [14]) was 83.4% and the Activity (MCF7 [15]) was 7.77%. The Activity (MCF7 [16]) was 0.98%, the Activity (MCF7 [17]) was 56.6% and the Activity (MCF7 [18]) was 30.1%. For the same compound, the Activity (MCF7 [19]) was 13.1%, the Activity (MCF7 [20]) was 52.5% and the Activity (MCF7 [21]) was 35.6%. For the same compound, the Activity (MCF7 [22]) was 11.4%, the Activity (MCF7 [23]) was 46.2% and the Activity (MCF7 [24]) was 43.7%. The Activity (MCF7 [25]) was 10%, the Activity (MCF7 [26]) was “Active” and the Activity (MCF7 [27]) was “Active”.
`Cn1c[n+](CC(=O)c2ccc3ccccc3c2)c2c1C(=O)c1ccccc1C2=O` showed an IC50 (MCF7 [1]) of 10500 nM, an IC50 (HeLa) of 6100 nM and an IC50 (A549) of 1400 nM. It also gave an IC50 (L929) of 19000 nM, a selectivity ratio [2] of 1.81 and a selectivity ratio [3] of 3.11. The selectivity ratio [4] was 13.6.
`CC(C)Cn1c[n+](CC(=O)c2ccccc2)c2c1C(=O)c1ccccc1C2=O` showed an IC50 (MCF7 [1]) of 520 nM, an IC50 (HeLa) of 900 nM and an IC50 (A549) of 320 nM. It also gave an IC50 (L929) of 2700 nM, a selectivity ratio [2] of 5.19 and a selectivity ratio [3] of 3. For the same compound, the selectivity ratio [4] was 8.44.
For `CC(C)c1cccc(C(C)C)c1-n1c[n+](CC(=O)c2ccc([N+](=O)[O-])cc2)c2c1C(=O)c1ccccc1C2=O`, the IC50 (MCF7 [1]) was 47900 nM, the IC50 (HeLa) was > 100000 nM and the IC50 (A549) was 26700 nM. For the same compound, the IC50 (L929) was 46500 nM, the selectivity ratio [2] was 0.97 and the selectivity ratio [3] was < 0.47. For the same compound, the selectivity ratio [4] was 1.74.
